The conditions of the data set: rcm bond, 40.0 °C.

SMILES strings stand for the structures. Read-outs that look alike come from different tables or passages of the source.

Under “from C=CCCCCC[C@H](NC(=O)OC(C)(C)C)C(=O)N1C[C@H](n2nnc(-c3ccccc3)n2)C[C@H]1C(=O)N[C@]1(C(=O)OCC)C[C@H]1C=C, Hoveyda catalyst, DCM, 2.18 mM, 20.0 h”, `CCOC(=O)[C@@]12C[C@H]1C=CCCCCC[C@H](NC(=O)OC(C)(C)C)C(=O)N1C[C@H](n3nnc(-c4ccccc4)n3)C[C@H]1C(=O)N2` gave a ring closure, yield of all isomers of 85.5%.

In turn, `CCOC(=O)[C@@]12C[C@H]1C=CCCCCC[C@H](NC(=O)OC(C)(C)C)C(=O)N1C[C@H](c3nnn(Cc4ccc(-c5ccccc5)cc4)n3)C[C@H]1C(=O)N2` returned a ring closure, yield of all isomers (from C=CCCCCC[C@H](NC(=O)OC(C)(C)C)C(=O)N1C[C@H](c2nnn(Cc3ccc(-c4ccccc4)cc3)n2)C[C@H]1C(=O)N[C@]1(C(=O)OCC)C[C@H]1C=C, Hoveyda's catalyst, CH2Cl2, 10.0 mM, 16.0 h) of 91.3%.

On to `CCOC(=O)[C@@]12C[C@H]1C=CCCCCC[C@H](NC(=O)OC(C)(C)C)C(=O)N1C[C@@H](O)C[C@H]1C(=O)N2`, for which, for the setting “from C=CCCCCC[C@H](NC(=O)OC(C)(C)C)C(=O)N1C[C@@H](O)C[C@H]1C(=O)N[C@]1(C(=O)OCC)C[C@H]1C=C, Hoveyda 1st generation catalyst, DCM, 14.45 mM, 12.0 h”, the ring closure, yield of all isomers was 87%.

These data come from patent publication US7601709.
